Data reported in patent US20230042830A1, “COMPOSITIONS AND METHODS FOR GENERATION OF RETINAL GANGLION CELLS FROM INDUCIBLE PLURIPOTENT STEM CELLS FOR THE TREATMENT OF PROGRESSIVE OPTIC NEUROPATHIES, INCLUDING GLAUCOMA” (THE TRUSTEES OF THE UNIVERSITY OF PENNSYLVANIA, priority 2021, published 2023).

Assays:
[1] = test system: SIRT1 pathway; details: mouse models of optic neuritis and optic nerve trauma; cited from earlier work
[2] = test system: iPSC-RGC cultures; assay: Flow cytometry analysis of iPSC-RGC cultures (CD90/Thy-1, Brn-3b, RBPMS, SNCG); assay type: cell-based, human; details: flow cytometry after 35 days in vitro, three independent iPSC lines
Method: iPSCs were cultured on 0.1% gelatinized plates containing iMEFs in 37° C. 5% O2 and 5% CO2 conditions. Cells were maintained until approximately 75% confluence, then feeder cells were depleted and approximately 1.5×10^6 iPSCs were seeded in one well of 6-well tissue culture dish (Corning) coated with 1:100 diluted growth factor reduced Matrigel. iPSCs were maintained in iPSC: MEF-conditioned medium (80:20)+20 ng/mL of bFGF and 5 ng/ml of stable bFGF. The MEF-conditioned media was prepared by plating iMEFs onto 0.1% gelatin at a density of 20,000 cells/cm^2 in iPSC media. […] On day 16 of differentiation, seven conditions—1) L, 2) X, 3) 1.5 μM CHIR99021 (CHIR) (Wnt agonist; SelleckChem), 4) LX, 5) LSB, 6) LSB-CHIR and 7) LSBX were evaluated for RPC and RGC markers on day 23. Cultures from the following four conditions—1) LSBX, 2) LSB, 3) LX, and 4) 1.5 μM CHIR99021 (CHIR) (Wnt agonist; SelleckChem) were further evaluated at 35. An additional five conditions—1) L only, 2) X only, 3) LSB, 4) LSBX, and 5) LSB-CHIR were evaluated for RPC markers on day 23 to evaluate for transcript expression differences across different conditions in RPCs. […]

[3] = test system: sonic hedgehog; assay: RGC induction with SHH or SAG; assay type: cell-based, human; details: 100 nM, day 22-23
Method: Prior to RGC differentiation, medium was changed daily using RGC induction media containing SHH (sonic hedgehog) (250 ng/mL; R&D systems) or SAG (100 nM; Tocris), SHH was replaced with SAG after establishing equal competence, FGF8 (100 ng/mL, R&D systems) for two days. For RGC differentiation (see FIGS. 1D and 2B for kinetics), on day 24, cells were manually crossed into small clusters with Leibovitz's medium containing […] Glucose using the crosshatching technique as previously described (Espuny-Camacho et al., 2013), then replated at a density of 1.0×10^5 cells/well of 6-well plate coated with 1:100 diluted growth factor reduced Matrigel in RGCs induction media containing: Follistatin 300 (100 ng/ml), cyclopamine (0.5 uM, Tocris), DAPT (3 uM, Tocris), and 4.2 μM Rock inhibitor (Y27632). Media was changed 24 h post-plating with RGC induction media containing: Follistatin 300 (100 ng/ml) and DAPT (3 uM), daily for two days. From day 27, media was changed to RGC induction media containing: DAPT (3 uM, Tocris), 10 μM Rock inhibitor (Y27632), forskolin (5 uM; SelleckChem), cAMP (400 uM; Sigma-Aldrich), BDNF (40 ng/mL; R&D systems), NT4 (5 ng/mL; R&D systems), and CNTF (10 ng/mL; R&D systems). Media was changed every 2-3 days until day 36. […]

Oc1ccc(C=Cc2cc(O)cc(O)c2)cc1 [resveratrol]
visual function and RGC survival [1]: preserves visual function and RGC survival

Cc1c[nH]c(-c2cnc(NCCNc3ccc(C#N)cn3)nc2-c2ccc(Cl)cc2Cl)n1 [CHIR, CHIR99021]
Thy-1 (CD90) positive cells [2]: 22.5%

CNC1CCC(N(Cc2cccc(-c3ccncc3)c2)C(=O)c2sc3ccccc3c2Cl)CC1 (stereo not drawn) [SAG]
RGC induction compared with SHH [3]: no difference in RGC induction changes
